Results as given in PMC9697818, “Design, Synthesis and Biological Assessment of Rhodanine-Linked Benzenesulfonamide Derivatives as Selective and Potent Human Carbonic Anhydrase Inhibitors” (Molecules, 2022).
pKi: −log10 of the molar value.

Legend:
Assay in all cases: stopped-flow CO2 hydration assay
Type in all cases: biochemical
[1] = molecular target: T1, hCA IX (Homo sapiens, UniProt Q16790)
T1 construct: gene CA9; recombinant, tumor-associated transmembrane isoform
Summary of the method: (§1)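 Inhibition of recombinant human carbonic anhydrase isozymes was measured by stopped-flow following the enzyme-catalysed CO2 hydration for 5–10 s. Assays used 0.2 mM Phenol Red read at 557 nm, 10 mM Hepes (pH 7.4), 10 mM NaClO4, CO2-saturated water at 25 °C as substrate and 5–12 nM enzyme, with inhibitor preincubated with enzyme for 10 min at room temperature. Inhibitor stocks of 10 mM in DMSO-water 1:1 were diluted down to 0.01 nM in assay buffer, using at least seven concentrations. Inhibition constants (Ki) came from non-linear least-squares fitting with the Cheng–Prusoff equation and are means of at least three determinations.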

[2] = molecular target: T2, hCA II (Homo sapiens, UniProt P00918)
T2 construct: gene CA2; recombinant, cytosolic isoform
Summary of the method: as §1

[3] = molecular target: T3, hCA XII (Homo sapiens, UniProt O43570)
T3 construct: gene CA12; recombinant, tumor-associated transmembrane isoform
Summary of the method: as §1

[4] = molecular target: T4, hCA I (Homo sapiens, UniProt P00915)
T4 construct: gene CA1; recombinant, cytosolic isoform
Summary of the method: as §1

T3 sequence (O43570 30-289 limits assumed): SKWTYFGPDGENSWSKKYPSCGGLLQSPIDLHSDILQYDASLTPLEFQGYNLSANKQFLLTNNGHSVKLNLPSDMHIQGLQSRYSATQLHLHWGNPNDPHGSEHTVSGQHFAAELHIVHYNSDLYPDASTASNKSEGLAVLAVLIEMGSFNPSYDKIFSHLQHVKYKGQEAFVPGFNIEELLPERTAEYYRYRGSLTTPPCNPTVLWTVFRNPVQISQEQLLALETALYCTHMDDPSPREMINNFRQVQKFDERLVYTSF
T4 sequence (P00915 2-261): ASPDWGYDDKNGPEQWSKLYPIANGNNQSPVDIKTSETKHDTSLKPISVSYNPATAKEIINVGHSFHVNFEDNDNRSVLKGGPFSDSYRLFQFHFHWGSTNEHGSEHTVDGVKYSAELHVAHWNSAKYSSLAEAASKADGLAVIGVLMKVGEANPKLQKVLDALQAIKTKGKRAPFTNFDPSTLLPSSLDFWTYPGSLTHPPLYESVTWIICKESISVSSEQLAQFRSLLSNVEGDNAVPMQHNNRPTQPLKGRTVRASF

SMILES	pKi [1]	pKi [2]	pKi [3]	pKi [4]
NS(=O)(=O)c1ccc(NC(=O)CN2C(=O)/C(=C\c3ccc(OC(F)(F)F)cc3)SC2=S)cc1 [7c, (E)-2-(4-Oxo-2-thioxo-5-(4-(trifluoromethoxy)benzylidene)thiazolidin-3-yl)-N-(4-sulfamoylphenyl)acetamide]	8.01	6.02	6.80	5.62
NS(=O)(=O)c1ccc(NC(=O)CN2C(=O)/C(=C\c3ccccc3F)SC2=S)cc1 [7d, (E)-2-(5-(2-Fluorobenzylidene)-4-oxo-2-thioxothiazolidin-3-yl)-N-(4-sulfamoylphenyl)acetamide]	7.84	6.86	7.18	6.65
C=CCOc1ccc(/C=C2/SC(=S)N(CC(=O)Nc3ccc(S(N)(=O)=O)cc3)C2=O)cc1 [7f, (E)-2-(5-(4-(Allyloxy)benzylidene)-4-oxo-2-thioxothiazolidin-3-yl)-N-(4-sulfamoylphenyl)acetamide]	8.25	6.49	7.17	6.16
COc1cc(/C=C2/SC(=S)N(CC(=O)Nc3ccc(S(N)(=O)=O)cc3)C2=O)cc(OC)c1OC [7g, (E)-2-(4-Oxo-2-thioxo-5-(3,4,5-trimethoxybenzylidene)thiazolidin-3-yl)-N-(4-sulfamoylphenyl)acetamide]	8.38	7.50	7.34	6.76
CCOc1cc(/C=C2/SC(=S)N(CC(=O)Nc3ccc(S(N)(=O)=O)cc3)C2=O)ccc1O [7h, (E)-2-(5-(3-Ethoxy-4-hydroxybenzylidene)-4-oxo-2-thioxothiazolidin-3-yl)-N-(4-sulfamoylphenyl)acetamide]	8.25	8.14	7.20	7.65
NS(=O)(=O)c1ccc(NC(=O)CN2C(=O)/C(=C\c3cccc(Oc4ccccc4)c3)SC2=S)cc1 [7m, (E)-2-(4-Oxo-5-(3-phenoxybenzylidene)-2-thioxothiazolidin-3-yl)-N-(4-sulfamoylphenyl)acetamide]	7.55	7.26	7.33	6.33
NS(=O)(=O)c1ccc(NC(=O)CN2C(=O)/C(=C\c3ccc(F)c(F)c3)SC2=S)cc1 [7r, (E)-2-(5-(3,4-Difluorobenzylidene)-4-oxo-2-thioxothiazolidin-3-yl)-N-(4-sulfamoylphenyl)acetamide]	7.87	7.71	8.02	6.67
NS(=O)(=O)c1ccc(NC(=O)CN2C(=O)/C(=C\c3cccc([N+](=O)[O-])c3)SC2=S)cc1 [7s, (E)-2-(5-(3-Nitrobenzylidene)-4-oxo-2-thioxothiazolidin-3-yl)-N-(4-sulfamoylphenyl)acetamide]	8.08	7.84	8.05	7.11
NS(=O)(=O)c1ccc(NC(=O)CN2C(=O)/C(=C\c3ccc([N+](=O)[O-])cc3)SC2=S)cc1 [7u, (E)-2-(5-(4-Nitrobenzylidene)-4-oxo-2-thioxothiazolidin-3-yl)-N-(4-sulfamoylphenyl)acetamide]	8.11	8.05	8.02	7.15
NS(=O)(=O)c1ccc(NC(=O)CN2C(=O)/C(=C3/C(=O)Nc4ccccc43)SC2=S)cc1 [9a, (Z)-2-(4-Oxo-5-(2-oxoindolin-3-ylidene)-2-thioxothiazolidin-3-yl)-N-(4-sulfamoylphenyl)acetamide]	8.33	8.37	7.25	7.38
NS(=O)(=O)c1ccc(NC(=O)CN2C(=O)/C(=C3/C(=O)Nc4ccc(C(F)(F)F)cc43)SC2=S)cc1 [9c, (Z)-2-(4-Oxo-5-(2-oxo-5-(trifluoromethyl)indolin-3-ylidene)-2-thioxothiazolidin-3-yl)-N-(4-sulfamoylphenyl)acetamide]	7.88	7.17	7.42	6.50
NS(=O)(=O)c1ccc(NC(=O)CN2C(=O)/C(=C3/C(=O)Nc4ccc(Cl)cc43)SC2=S)cc1 [9d, (Z)-2-(5-(5-Chloro-2-oxoindolin-3-ylidene)-4-oxo-2-thioxothiazolidin-3-yl)-N-(4-sulfamoylphenyl)acetamide]	8.22	8.28	7.58	7.45

Other lines, results leading:

pKi [1]	pKi [2]	pKi [3]	pKi [4]	SMILES
8.06	7.16	7.49	6.73	NS(=O)(=O)c1ccc(NC(=O)CN2C(=O)/C(=C\c3ccccc3)SC2=S)cc1 [7a, (E)-2-(5-Benzylidene-4-oxo-2-thioxothiazolidin-3-yl)-N-(4-sulfamoylphenyl)-acetamide]
7.45	7.29	8.04	6.46	NS(=O)(=O)c1ccc(NC(=O)CN2C(=O)/C(=C\c3ccc(Cl)cc3)SC2=S)cc1 [7b, (E)-2-(5-(4-Chlorobenzylidene)-4-oxo-2-thioxothiazolidin-3-yl)-N-(4-sulfamoylphenyl)acetamide]
8.10	7.11	8.02	6.07	NS(=O)(=O)c1ccc(NC(=O)CN2C(=O)/C(=C\c3ccc(C(F)(F)F)cc3)SC2=S)cc1 [7e, (E)-2-(4-Oxo-2-thioxo-5-(4-(trifluoromethyl)benzylidene)thiazolidin-3-yl)-N-(4-sulfamoylphenyl)acetamide]
8.14	7.25	8.05	6.90	N#Cc1ccc(/C=C2/SC(=S)N(CC(=O)Nc3ccc(S(N)(=O)=O)cc3)C2=O)cc1 [7i, (E)-2-(5-(4-Cyanobenzylidene)-4-oxo-2-thioxothiazolidin-3-yl)-N-(4-sulfamoylphenyl)acetamide]
7.80	7.34	7.13	6.64	COc1cccc(/C=C2/SC(=S)N(CC(=O)Nc3ccc(S(N)(=O)=O)cc3)C2=O)c1 [7j, (E)-2-(5-(3-Methoxybenzylidene)-4-oxo-2-thioxothiazolidin-3-yl)-N-(4-sulfamoylphenyl)acetamide]
8.03	7.90	7.24	7.10	COc1ccc(/C=C2/SC(=S)N(CC(=O)Nc3ccc(S(N)(=O)=O)cc3)C2=O)cc1 [7k, (E)-2-(5-(4-Methoxybenzylidene)-4-oxo-2-thioxothiazolidin-3-yl)-N-(4-sulfamoylphenyl)acetamide]
7.29	7.16	7.38	6.37	CC(C)c1ccc(/C=C2/SC(=S)N(CC(=O)Nc3ccc(S(N)(=O)=O)cc3)C2=O)cc1 [7l, (E)-2-(5-(4-Isopropylbenzylidene)-4-oxo-2-thioxothiazolidin-3-yl)-N-(4-sulfamoylphenyl)acetamide]
8.09	7.81	7.41	7.08	COc1ccc(/C=C2/SC(=S)N(CC(=O)Nc3ccc(S(N)(=O)=O)cc3)C2=O)cc1OC [7n, (E)-2-(5-(3,4-Dimethoxybenzylidene)-4-oxo-2-thioxothiazolidin-3-yl)-N-(4-sulfamoylphenyl)acetamide]
7.46	6.75	8.02	6.47	COc1cc(OC)c(OC)cc1/C=C1/SC(=S)N(CC(=O)Nc2ccc(S(N)(=O)=O)cc2)C1=O [7o, (E)-2-(4-Oxo-2-thioxo-5-(2,4,5-trimethoxybenzylidene)thiazolidin-3-yl)-N-(4-sulfamoylphenyl)acetamide]
7.75	8.10	8.01	6.41	COc1ccc(/C=C2/SC(=S)N(CC(=O)Nc3ccc(S(N)(=O)=O)cc3)C2=O)c(OC)c1 [7p, (E)-2-(5-(2,4-Dimethoxybenzylidene)-4-oxo-2-thioxothiazolidin-3-yl)-N-(4-sulfamoylphenyl)acetamide]
7.63	7.27	7.58	6.53	COc1cc(OC)c(/C=C2/SC(=S)N(CC(=O)Nc3ccc(S(N)(=O)=O)cc3)C2=O)c(OC)c1 [7q, (E)-2-(4-Oxo-2-thioxo-5-(2,4,6-trimethoxybenzylidene)thiazolidin-3-yl)-N-(4-sulfamoylphenyl)acetamide]
8.14	8.02	7.52	7.11	COc1cc(/C=C2/SC(=S)N(CC(=O)Nc3ccc(S(N)(=O)=O)cc3)C2=O)cc(OC)c1O [7t, (E)-2-(5-(4-Hydroxy-3,5-dimethoxybenzylidene)-4-oxo-2-thioxothiazolidin-3-yl)-N-(4-sulfamoylphenyl)acetamide]
8.05	8.26	7.39	7.04	Cc1ccc2c(c1)/C(=C1/SC(=S)N(CC(=O)Nc3ccc(S(N)(=O)=O)cc3)C1=O)C(=O)N2 [9b, (Z)-2-(5-(5-Methyl-2-oxoindolin-3-ylidene)-4-oxo-2-thioxothiazolidin-3-yl)-N-(4-sulfamoylphenyl)acetamide]
